Key:
[1] = system: formalin-induced pain behavioral response in rats; experiment: Formalin-induced facial pain behavioral response in rats; type: in vivo, rats (Sprague-Dawley); settings: 5 and 20 mg/kg intraperitoneal 30 minutes before 5% formalin, rat, FIG. 5
Experimental: (§1) Mature male rats (Sprague-Dawley, 200-230 g) were used. The experimental animals were maintained under conditions of light-and-darkness cycle of 12 hours, a temperature of 22 to 25° C., a relative humidity of 40 to 60%, and free access to water and food.
5% Formalin (50 μl) was injected subcutaneously into the vibrissa pad on the left facial area of the rats using an insulin syringe (31 gauge). The behavioral response of rubbing or scratching the maxillofacial area was observed from 10 minutes after injection, accumulating in a unit of 5 minutes, for a total of 35 minutes (Park M K. et. al., Peripheral administration of NR2 antagonists attenuates orofacial formalin-induced nociceptive behavior in rats, Prog Neuropsychopharmacol Biol Psychiatry, 2011).
The vehicle, the test compound (5 and 20 mg/kg) and carbamazepine (25 mg/kg) were intraperitoneally administered, and after 30 minutes 5% formalin was injected into the left facial area.
(§2) The effect of the compounds was expressed as mean±standard error, and statistical significance was recognized when data were p<0.05 difference using one-way ANOVA and Dunnett's test.

[2] = system: rats in which facial pain was induced by inferior alveolar nerve injury; experiment: Air-puff test of mechanical allodynia in rats with facial pain induced by inferior alveolar nerve injury; type: in vivo, rats (Sprague-Dawley); settings: rat; for analgesic effect on mechanical allodynia induced by inferior alveolar nerve injury: FIG. 4
Experimental: as §1
(§3) To observe the behavioral response, the animals were placed in a cage and adapted for 20 minutes in a quiet area, followed by an air-puff test to assess mechanical allodynia to air stimulation. Aggressive behaviors such as head movement to avoid air stimulation or biting in response to the air stimulation applied to the facial region which is dominated by the trigeminal nerve were used as evaluation criteria for the behavioral reflex. A total of 10 trials and 50% or more responses were considered as the threshold of stimulation.
(§4) On the 7th day after surgery, the test compound (5, 10 and 20 mg/kg) and carbamazepine (25 and 50 mg/kg) were intraperitoneally administered to the test animals in which allodynia had been induced. At 30 minutes, 60 minutes, 90 minutes, 2 hours, 3 hours, 4 hours and 6 hours after administration, the pharmacological effects of the drugs were evaluated by observing changes in the behavioral responses.
as §2

[3] = system: rats in which trigeminal neuralgia was induced by the trigeminal nerve root compression; experiment: Air-puff test of mechanical allodynia in rats with trigeminal neuralgia induced by trigeminal nerve root compression; type: in vivo, rats (Sprague-Dawley); settings: rat; for analgesic effect on mechanical allodynia induced by trigeminal nerve root compression: FIG. 2
Experimental: as §1
Rats were anesthetized with a mixed solution of ketamine (40 mg/kg) and xylazine (4 mg/kg), fixed on a stereotaxic instrument, and 4% agar solution was injected into the left trigeminal nerve roots using a stainless steel injection tube to compress the trigeminal nerve roots. 10 μl of 4% agar solution was slowly injected over the trigeminal nerve roots for 5 seconds, and the injection tube was removed after 5 minutes and then sutured (Jeon H J. et. al., A novel trigeminal neuropathic pain model: compression of the trigeminal nerve root produces prolonged nociception in rats, Prog Neuropsychopharmacol Biol Psychiatry. 2012).
as §3
as §4, with “(10, 30” for “(5, 10”, “50” for “20”
as §2

[4] = patients treated for trigeminal neuralgia; cited from earlier work
[5] = overall conclusion, intraperitoneal
[6] = 30 and 50 mg/kg intraperitoneal

| SMILES | pain behavioral response as compared with the vehicle-administered group [1] | time after administration from which significant pain-relieving effect was observed ([2]; 20 mg/kg intraperitoneal) [min] | time for which pain-relieving effect was maintained ([2]; 20 mg/kg intraperitoneal) [h] | inhibition of mechanical allodynia induced by inferior alveolar nerve injury ([2]; 5, 10 and 20 mg/kg intraperitoneal, 7th day after surgery, FIG. 3) | time after administration from which the effect was significant ([2]; 5 and 10 mg/kg intraperitoneal) [min] | time after administration up to which the effect was significant ([2]; 5 and 10 mg/kg intraperitoneal) [h] | analgesic action in the inferior alveolar nerve injury-induced facial pain model compared with carbamazepine [2, 5] | inhibition of mechanical allodynia induced by trigeminal nerve root compression ([3]; 30 and 50 mg/kg intraperitoneal, 7th day after surgery, FIG. 1) | time after administration for which analgesic effect was maintained [3, 6] [h] | time after administration from which analgesic effect could be observed [3, 6] [min] | analgesic action in the trigeminal neuralgia animal model compared with carbamazepine [3, 5] | patients with side effects drowsiness, ataxia, nausea and anorexia [4] | analgesic effect on mechanical allodynia induced by inferior alveolar nerve injury ([2]; 25 mg/kg intraperitoneal) | time after administration at which the analgesic effect completely disappeared ([2]; 50 mg/kg intraperitoneal) [h] | analgesic effect on mechanical allodynia induced by inferior alveolar nerve injury ([2]; 50 mg/kg intraperitoneal) | analgesic effect on mechanical allodynia induced by trigeminal nerve root compression ([3]; 25 mg/kg intraperitoneal) | analgesic effect on mechanical allodynia induced by trigeminal nerve root compression ([3]; 50 mg/kg intraperitoneal) |
| --- | --- | --- | --- | --- | --- | --- | --- | --- | --- | --- | --- | --- | --- | --- | --- | --- | --- |
| NC(=O)O[C@@H](Cn1ncnn1)c1ccccc1Cl [test compound] | statistically significant decrease | 90 | 4 | significantly inhibited | 90 | 2 | equivalent to or greater than carbamazepine | significantly inhibited | 6 | 60 | better analgesic action than carbamazepine | – | – | – | – | – | – |
| NC(=O)N1c2ccccc2C=Cc2ccccc21 [carbamazepine, reference compound] | – | – | – | – | – | – | – | – | – | – | – | about 40% | no analgesic effect | 2 | significant analgesic effect | no analgesic effect | transient low analgesic effect |

From patent publication US12611395B2, “Use of carbamate compound for preventing or treating trigeminal neuralgia” (SK BIOPHARMACEUTICALS CO., LTD., priority 2016, dated 2026)
